The target of one experiment is T1, CDK9/Cyclin T1 (Homo sapiens, UniProt P50750).
T1 construct: purchased Invitrogen
Nature of the experiment: LanthaScreen Eu Kinase Binding Assay, CDK9/Cyclin T1. As to conditions: tracer 236, read-out: Affinity (Kd) CDK9/Cyclin T1. As for the experimental part:
(§1) This protocol describes how the LanthaScreen Eu Kinase Binding Assay was performed to determine dissociation constants (Kd) of compounds of general formula (I) and CDK/Cyclin complexes. The principle behind this assay is based upon the binding and displacement of an Alexa Fluor 647-labeled tracer, which binds to the active site of kinases. Binding of the tracer to the kinase is detected using a Eu-labeled antibody. Simultaneous binding of both the tracer and antibody to the kinase gives rise to a FRET-signal. Binding of an inhibitor to the kinase competes for binding with the tracer, resulting in a loss of FRET.
(§2) The compounds of general formula (I) summarized in Table 1 were diluted from a 10 mM DMSO stock solution 1:10 in a total volume of 15 μL DMSO. This compound predilution was then serial diluted 1:3 over 8 steps in DMSO and briefly spun down. Each compound solution was now diluted 1:33.33 in kinase buffer (HEPES: 20 mM, pH: 8.0; MgCl2: 10 mM; DTT: 1 mM; Brij-35: 0.01%), mixed thoroughly and spun down. For every sample, 5 μL of the diluted compound were mixed with 5 μL tracer working solution (e.g. 60 nM tracer 236 in kinase buffer for CDK2/Cyclin A) and 5 μL CDK/Cyclin/Anti-GST-AB-working solution (e.g. 15 nM CDK2/Cyclin A, 1:250 dilution of Anti-GST-AB in kinase buffer) in a well of a small volume 384 well plate (Corning Incorporated, Corning, N.Y., USA; order no. 3673). […] For positive controls, in each well 5 μL of DMSO working solution (3% DMSO diluted in kinase buffer) was mixed with 5 μL CDK/Cyclin/Anti-GST-AB-working solution: (e.g. 15 nM CDK2/Cyclin A, 1:250 dilution of Anti-GST-AB in kinase buffer) and 5 μL Tracer working solution (e.g. 60 nM Tracer 236 in kinase buffer for CDK2/Cyclin A). Positive and negative controls were calculated from at least 8 different sample wells. The 384 well plates were mixed in a Teleshaker plate mixer (Beckman Coulter, Brea, Calif., USA) at 2000 rpm for 40 sec, and incubated for 1 h at room temperature before reading. The FRET signal was measured at 340 nm excitation, 665 nm and 615 nm emission (for the kinase tracer and LanthaScreen Eu-AB, respectively) with an Envision spectrophotometer (Perkin Elmer, Waltham, Mass., USA) with 50 μs delay and 300 μs integration time. Kd values were determined from the sigmoidal dose response curves with the software Quattro Workflow (Quattro GmbH, Munich, Germany).

Another experiment addresses T2, CDK9/Cyclin K (Homo sapiens, UniProt P50750).
T2 construct: purchased Invitrogen
Nature of the experiment: LanthaScreen Eu Kinase Binding Assay, CDK9/Cyclin K. As to conditions: tracer 236, read-out: Affinity (Kd) CDK9/Cyclin K. As for the experimental part: as §1, §2
On the technique in general: TR-FRET usually uses a lanthanide donor and a delayed reading to cut background.

For the next experiment, the target named is T3, CDK8/Cyclin C (Homo sapiens, UniProt P49336).
T3 construct: purchased Invitrogen
Nature of the experiment: LanthaScreen Eu Kinase Binding Assay, CDK8. Particulars: tracer 236, read-out: Affinity (Kd) CDK8. As for the experimental part:
as §1, §2

In another experiment the target is T4, CDK7/CyclinH/Mat1 (Homo sapiens, UniProt P50613).
T4 construct: purchased Carna Biosciences
Nature of the experiment: LanthaScreen Eu Kinase Binding Assay, CDK7. As to conditions: tracer 236, read-out: Affinity (Kd) CDK7. As for the experimental part:
as §1, §2

The next experiment addresses T5, CDK2/CyclinA (Homo sapiens, UniProt P24941).
T5 construct: purchased Proqinase
Put plainly: LanthaScreen Eu Kinase Binding Assay, CDK2. Particulars: tracer 236, read-out: Affinity (Kd) CDK2. As for the experimental part: as §1, §2

In experiment [1] the test system is LPS-induced TNF alpha release in PBMCs. Put plainly: TNF alpha release assay. Particulars: Homo sapiens, PBMC, 6 h, 1 μg/mL LPS. The experiment is classed as cell-based. The protocol:
Freshly isolated peripheral blood mononuclear cells (PBMCs) were seeded in 96-well cell culture plates with 200,000 cells in 100 μl cell culture medium (DMEM cell culture medium+glutamine from PAN Biotech GmbH, Aidenbach, Germany) supplemented with 10% fetal calf serum (PAA Laboratories GmbH, Pasching, Austria) per well and incubated overnight at 37° C., 5% CO2. To each well, 100 μL cell culture medium with 2× concentrated test compounds diluted from 10 mM DMSO stocks, or 100 μL DMEM with 0.4% DMSO for control wells, was added. The compounds of general formula (I) summarized in Table 6 were used in this assay. After incubation for 1 h at 37° C., 5% CO2, cells were stimulated with 1 μg/mL LPS (Lipopolysaccharides, Sigma, catalog #L4391-1MG; 1 mg/ml stock solution), or left untreated for negative controls, and plates were incubated for 6 h at 37° C./5% CO2. The cell culture plates were centrifuged at 2000 rpm for 5 minutes, and supernatants were transferred to fresh 96-well polypropylene plates. 25 µL of supernatants were transferred into 96-well-plates of the human TNF alpha-tissue culture kit (Meso Scale Discovery, Gaithersburg, Md., USA), and manufacturer's instructions were followed for analysis of TNF alpha levels. Chemoluminescence was measured in the Mesoscale Sector Imager, and EC50 values were calculated with the software Excel Fit (IDBS, Guildford, UK) from 2-fold dilution series comprising at least 6 concentrations in duplicates.

The test system of experiment [2] is NF-kappaB reporter gene activation in HEK293 cells. Put plainly: NF-kappaB reporter assay. Format: cell-based. As to conditions: Homo sapiens, 20 ng/ml TNF alpha, 5 h. As for the experimental part: Cells were maintained in RPMI cell culture medium+glutamine (PAN Biotech GmbH, Aidenbach, Germany) supplemented with 10% fetal calf serum (PAA Laboratories GmbH, Pasching, Austria) and grown at 37° C., 5% CO2. HEK293 cells grown to 50% confluence were transfected with the Amaxa® Cell Line Nucleofector® Kit V (Lonza, Basel, Switzerland, catalog #VCA-1003). Transfections were performed according to manufacturer's optimized protocol for transfection of HEK293 cells. In brief, 2×10^5 cells were transfected with 5 μg highly purified plasmid DNA. Cells were transfected with a NF-kappa B reporter plasmid (pNFkBluc), pTALluc for control, or pMAXGFP for transfection control. After transfection, cells were taken up in 500 μL RPMI1640 cell culture medium, incubated for 1 h at 37° C., and 4.5 ml DMEM without phenol red were added per transfection. Transfected cells were seeded in 96 well plates (Greiner Bio-One, Frickenhausen, Germany, catalog #655098) with 100 μL cell suspension per well and incubated for 48 h. To each well, 100 μL DMEM with 2× concentrated compound diluted from 10 mM DMSO stocks, or 100 μL DMEM with 0.4% DMSO for control wells, was added. The compounds of general formula (I) summarized in Table 6 were used in this assay. Cells were stimulated with 20 ng/ml TNF alpha, and plates were incubated for 5 h at 37° C./5% CO2. Cell culture supernatants were removed to leave 100 μl medium per well, followed by addition of 100 μl Bright Glo luciferase assay reagent (Promega, Madison, Wis., USA, catalog #E2620), and shaking for 5 minutes in the dark. Luminescence was measured with a Victor Photospectrometer (Perkin Elmer, Waltham, Mass., USA). […], values were calculated with the software Excel Fit (IDBS, Guildford, UK) from 2-fold dilution series comprising at least 10 concentrations in duplicates.
(In general: In a reporter assay the amount or activity of a reporter protein is the signal.)

Each structure is given as a SMILES string. Some results are limits rather than exact numbers.

The term IC50 denotes the concentration at which inhibition is half-maximal.

T1 sequence (P50750 whole entry): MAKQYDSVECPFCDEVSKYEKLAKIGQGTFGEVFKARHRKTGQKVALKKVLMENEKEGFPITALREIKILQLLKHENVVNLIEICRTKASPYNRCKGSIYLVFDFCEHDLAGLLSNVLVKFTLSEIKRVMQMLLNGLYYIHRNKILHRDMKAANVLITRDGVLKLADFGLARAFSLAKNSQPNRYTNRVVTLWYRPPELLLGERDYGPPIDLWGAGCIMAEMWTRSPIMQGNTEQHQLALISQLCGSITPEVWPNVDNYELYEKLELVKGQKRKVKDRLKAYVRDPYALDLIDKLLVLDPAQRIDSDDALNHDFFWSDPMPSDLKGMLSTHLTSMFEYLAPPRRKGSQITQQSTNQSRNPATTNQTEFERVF
T1 sequence (O60563 whole entry partner): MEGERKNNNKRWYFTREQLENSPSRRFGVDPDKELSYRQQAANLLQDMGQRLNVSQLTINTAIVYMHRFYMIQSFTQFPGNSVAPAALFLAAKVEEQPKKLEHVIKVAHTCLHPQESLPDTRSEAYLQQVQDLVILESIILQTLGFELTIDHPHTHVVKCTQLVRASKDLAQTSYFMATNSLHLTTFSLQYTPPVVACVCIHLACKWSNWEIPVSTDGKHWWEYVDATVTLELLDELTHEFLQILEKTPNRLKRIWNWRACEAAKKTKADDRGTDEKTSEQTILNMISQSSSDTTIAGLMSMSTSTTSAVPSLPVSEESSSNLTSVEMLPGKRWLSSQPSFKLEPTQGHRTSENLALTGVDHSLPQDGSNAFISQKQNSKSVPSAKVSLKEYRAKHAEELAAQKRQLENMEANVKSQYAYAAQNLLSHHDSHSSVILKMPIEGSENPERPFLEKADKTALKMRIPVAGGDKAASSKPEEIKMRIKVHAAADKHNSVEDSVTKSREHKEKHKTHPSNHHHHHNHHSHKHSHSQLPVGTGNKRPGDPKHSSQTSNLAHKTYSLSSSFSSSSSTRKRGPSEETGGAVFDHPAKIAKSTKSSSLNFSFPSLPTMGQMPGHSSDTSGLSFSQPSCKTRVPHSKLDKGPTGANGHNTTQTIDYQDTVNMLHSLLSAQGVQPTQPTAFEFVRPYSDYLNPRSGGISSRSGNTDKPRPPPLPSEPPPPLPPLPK
T2 sequence (P50750 whole entry): as the sequence (P50750 whole entry) above
T2 sequence (O75909 whole entry partner): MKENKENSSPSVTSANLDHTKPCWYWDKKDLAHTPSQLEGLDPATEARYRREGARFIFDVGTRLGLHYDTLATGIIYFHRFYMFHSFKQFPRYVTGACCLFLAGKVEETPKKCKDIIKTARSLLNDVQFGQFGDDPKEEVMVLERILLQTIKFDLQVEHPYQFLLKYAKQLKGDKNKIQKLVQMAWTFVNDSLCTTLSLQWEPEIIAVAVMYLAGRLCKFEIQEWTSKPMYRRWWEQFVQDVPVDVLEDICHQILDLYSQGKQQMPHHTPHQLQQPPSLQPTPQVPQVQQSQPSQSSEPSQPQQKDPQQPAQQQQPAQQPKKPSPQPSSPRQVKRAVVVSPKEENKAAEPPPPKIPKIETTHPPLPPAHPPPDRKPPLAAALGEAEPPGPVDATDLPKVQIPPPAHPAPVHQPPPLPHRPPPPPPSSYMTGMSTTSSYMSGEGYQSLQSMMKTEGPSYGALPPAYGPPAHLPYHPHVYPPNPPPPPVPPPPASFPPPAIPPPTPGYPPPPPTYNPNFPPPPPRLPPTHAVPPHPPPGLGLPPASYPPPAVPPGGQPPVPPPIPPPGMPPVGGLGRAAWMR
T4 sequence (P50613 whole entry): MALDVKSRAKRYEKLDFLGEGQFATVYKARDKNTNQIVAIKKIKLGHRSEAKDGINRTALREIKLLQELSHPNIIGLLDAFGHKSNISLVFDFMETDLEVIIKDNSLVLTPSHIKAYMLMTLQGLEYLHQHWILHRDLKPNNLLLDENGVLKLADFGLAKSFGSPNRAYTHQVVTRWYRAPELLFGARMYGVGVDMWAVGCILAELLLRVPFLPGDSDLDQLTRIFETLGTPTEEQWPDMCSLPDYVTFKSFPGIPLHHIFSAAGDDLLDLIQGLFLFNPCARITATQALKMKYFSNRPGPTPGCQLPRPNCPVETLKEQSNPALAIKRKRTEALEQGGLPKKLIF
T4 sequence (P51946 whole entry partner): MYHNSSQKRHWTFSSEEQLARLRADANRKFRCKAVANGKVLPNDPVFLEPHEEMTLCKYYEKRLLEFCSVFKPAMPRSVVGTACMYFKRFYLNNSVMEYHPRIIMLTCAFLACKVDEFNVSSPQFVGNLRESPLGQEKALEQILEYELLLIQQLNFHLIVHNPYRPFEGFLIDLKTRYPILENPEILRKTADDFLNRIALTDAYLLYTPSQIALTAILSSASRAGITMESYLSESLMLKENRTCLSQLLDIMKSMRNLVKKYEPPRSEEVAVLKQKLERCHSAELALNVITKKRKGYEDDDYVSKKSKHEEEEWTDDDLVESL
T4 sequence (P51948 whole entry partner): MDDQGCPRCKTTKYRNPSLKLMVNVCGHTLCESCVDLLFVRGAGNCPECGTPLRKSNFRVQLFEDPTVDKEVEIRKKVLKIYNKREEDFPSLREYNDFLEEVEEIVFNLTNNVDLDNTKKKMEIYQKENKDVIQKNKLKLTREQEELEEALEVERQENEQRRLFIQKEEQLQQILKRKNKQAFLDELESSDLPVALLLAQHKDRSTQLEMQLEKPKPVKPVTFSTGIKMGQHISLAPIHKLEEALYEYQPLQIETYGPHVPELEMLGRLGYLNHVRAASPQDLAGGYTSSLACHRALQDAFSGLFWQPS
T3 sequence (P49336 whole entry): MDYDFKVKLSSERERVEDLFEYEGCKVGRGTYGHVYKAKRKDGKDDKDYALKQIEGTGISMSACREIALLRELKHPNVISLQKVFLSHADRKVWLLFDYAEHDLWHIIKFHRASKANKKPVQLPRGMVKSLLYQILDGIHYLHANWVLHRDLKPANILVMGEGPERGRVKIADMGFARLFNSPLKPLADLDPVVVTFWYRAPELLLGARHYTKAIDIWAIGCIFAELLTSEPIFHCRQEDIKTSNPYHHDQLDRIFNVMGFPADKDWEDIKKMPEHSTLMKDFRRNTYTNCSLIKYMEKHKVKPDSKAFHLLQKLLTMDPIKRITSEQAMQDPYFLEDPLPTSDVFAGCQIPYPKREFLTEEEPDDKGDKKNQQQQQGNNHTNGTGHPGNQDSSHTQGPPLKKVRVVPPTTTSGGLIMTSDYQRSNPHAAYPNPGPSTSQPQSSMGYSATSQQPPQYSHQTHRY
T3 sequence (P24863 whole entry partner): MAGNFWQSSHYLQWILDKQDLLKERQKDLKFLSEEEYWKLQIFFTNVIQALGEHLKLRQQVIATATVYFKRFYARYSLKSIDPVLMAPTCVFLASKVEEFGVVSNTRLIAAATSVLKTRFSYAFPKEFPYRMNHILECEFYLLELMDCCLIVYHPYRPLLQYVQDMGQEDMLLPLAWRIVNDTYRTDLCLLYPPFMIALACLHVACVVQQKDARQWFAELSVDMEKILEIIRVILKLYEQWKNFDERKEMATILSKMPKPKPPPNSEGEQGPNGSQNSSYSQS

Take `COc1ccccc1-c1ncnc(Nc2cccc(NC(=O)Nc3ccccc3)c2)n1` [Compound N1, N-[3-((4-(2-Methoxyphenyl)-1,3,5-triazin-2-yl)amino)phenyl]-N′-phenyl-urea]: the Kd at CDK9/Cyclin T1 was 0.478 µM; at CDK9/Cyclin K it was 0.159 µM; at CDK8/Cyclin C it was greater than 10 µM; at CDK7/CyclinH/Mat1 it was greater than 30 µM; on CDK2/CyclinA it was 2.36 µM. Also, the values for the IC50 in experiment [1] and in experiment [2] were 6.71 µM and 18.4 µM, respectively.
On to `NS(=O)(=O)Cc1cccc(Nc2ncnc(-c3cccc4c3OCO4)n2)c1` [Compound B15, 3-[(4-(1,3-Benzodioxol-4-yl)-1,3,5-triazin-2-yl)amino]benzenemethanesulfonamide], for which the Kd on CDK9/Cyclin T1 is 0.141 µM; on CDK9/Cyclin K, 2.46 µM; on CDK8/Cyclin C, greater than 10 µM; on CDK7/CyclinH/Mat1, greater than 10 µM; at CDK2/CyclinA, 6.46 µM.
